Test results as given in publication PMC6467816 (Journal of peptide science : an official publication of the …, 2019).
Peptide text beside a SMILES is read from it.

How the values were obtained:
[1] = Pharmacokinetic analysis after intravenous bolus in rats; type: in vivo, Sprague-Dawley rats
[2] = In vitro stability to proteolysis in human serum; type: in vitro ADME; conditions: 24 h treatment, 37 °C, RP-HPLC 280 nm
[3] = rat, in vivo; cited from earlier work
[4] = tested on: trypsin; conditions: cited from earlier work
[5] = tested on: HOS.CD4.CCR5 cells; experiment: MTT; type: cell-based; conditions: concentrations 50 fold higher than IC50 values, 24 hours continuous cellular exposure
[6] = tested on: chymotrypsin; conditions: cited from earlier work
[7] = tested on: viruses pseudotyped with vesicular stomatitis virus glycoprotein, VSV-G; type: cell-based

Compound	Time over which plasma level was detectable ([1]; after tail vein administration to rats, fluorescence) [h]	AUC(0-inf) ([1]; rat, in vivo, iv, 0.01 mg/kg) [ng·h/mL]	Vd ([1]; rat, in vivo, iv, 0.01 mg/kg) [L]	clearance ([1]; rat, in vivo, iv, 0.01 mg/kg, CL (ml/h), clearance, intravenous bolus 0.01 mg/kg FITC (equiv), Sprague-Dawley rats) [mL/min]	half-life ([1]; rat, in vivo, iv, 0.01 mg/kg, t1/2α (h), distribution half life, intravenous bolus 0.01 mg/kg FITC (equiv), Sprague-Dawley rats) [min]	half-life ([1]; rat, in vivo, iv, 0.01 mg/kg, t1/2β (h), elimination half life, intravenous bolus 0.01 mg/kg FITC (equiv), Sprague-Dawley rats) [min]	Stability to human serum protease mixture [2]	Clearance rate [3]	Resistance to proteolysis by trypsin [4]	Toxicity in target HOS.CD4.CCR5 cells [5]	Resistance to proteolysis by chymotrypsin [6]	Inhibition of VSV-G pseudotyped virus [7]
CC[C@H](C)[C@@H]1NC(=O)[C@H](CC(N)=O)NC(=O)[C@@H](NC(=S)Nc2ccc3c(c2)C(=O)OC32c3ccc(O)cc3Oc3cc(O)ccc32)CC(=O)NCCCC[C@@H](C(N)=O)NC(=O)[C@H](Cc2c[nH]c3ccccc23)NC(=O)[C@@H]2C[C@H](n3cc(C4=CC=C[CH]4[Fe][CH]4C=CC=C4)nn3)CN2C1=O (stereo partly shown) [FITC-AAR029b] (HELM PEPTIDE1{[O=C1OC2(c3ccc(O)cc3Oc3cc(O)ccc32)c2ccc(NC(=S)[*:2])cc21].D.N.I.[O=C([C@@H]1C[C@H](n2cc(C3=CC=C[CH]3[Fe][CH]3C=CC=C3)nn2)CN1[*:1])[*:2]].W.K.[am]}$PEPTIDE1,PEPTIDE1,2:R3-7:R3$$$V2.0; C-terminus assumed)	≤ 7	40 ± 40	0.542 ± 0.119	2.27	1.74 ± 0.6	~180	intact					
COc1ccnc2[nH]cc(C(=O)C(=O)N3CCN(C(=O)c4ccccc4)C[C@H]3C)c12 [BMS-378806]								~ 1800 mL/h				
CC[C@H](C)[C@@H]1NC(=O)[C@H](CC(N)=O)NC(=O)[C@@H](N)CC(=O)NCCCC[C@@H](C(N)=O)NC(=O)[C@H](Cc2c[nH]c3ccccc23)NC(=O)[C@@H]2C[C@H](n3cc(C4=CC=C[CH]4[Fe][CH]4C=CC=C4)nn3)CN2C1=O (stereo partly shown) [AAR029b] (HELM PEPTIDE1{D.N.I.[O=C([C@@H]1C[C@H](n2cc(C3=CC=C[CH]3[Fe][CH]3C=CC=C3)nn2)CN1[*:1])[*:2]].W.K.[am]}$PEPTIDE1,PEPTIDE1,1:R3-6:R3$$$V2.0; N-terminus and C-terminus assumed)							intact		resistant to proteolysis	No toxicity	resistant to proteolysis	did not inhibit
